From ChEMBL document CHEMBL1133966, “Substituted imidazoles as glucagon receptor antagonists” (Bioorg Med Chem Lett, 2001)

Columns and labels:
Glucagon receptor [1] = target: T1, Glucagon receptor (Homo sapiens, UniProt P47871); test: Binding affinity towards human glucagon receptor in absence of Mg2+ expressed as IC50
MAP kinase p38 [2] = target: T2, MAP kinase p38 (Homo sapiens, UniProt O15264+Q15759+Q16539+P53778); test: Binding affinity towards human Mitogen-activated protein kinase p38 expressed as IC50; assay type: protein assay
Glucagon receptor [3] = target: T1, Glucagon receptor; test: Affinity for human glucagon receptor in absence of Mg2+; set-up: concentration or dose not given beside the values; details: concentration not given here
Glucagon receptor [4] = target: T1, Glucagon receptor; test: Affinity for human glucagon receptor in presence of Mg2+
Glucagon receptor [5] = target: T1, Glucagon receptor; test: Binding affinity towards human glucagon receptor in absence of Mg2+; details: concentration not given here
MAP kinase p38 [6] = target: T2, MAP kinase p38; test: Inhibition of human Mitogen-activated protein kinase p38 at 40 uM; assay type: protein assay

T1 sequence (P47871 whole entry): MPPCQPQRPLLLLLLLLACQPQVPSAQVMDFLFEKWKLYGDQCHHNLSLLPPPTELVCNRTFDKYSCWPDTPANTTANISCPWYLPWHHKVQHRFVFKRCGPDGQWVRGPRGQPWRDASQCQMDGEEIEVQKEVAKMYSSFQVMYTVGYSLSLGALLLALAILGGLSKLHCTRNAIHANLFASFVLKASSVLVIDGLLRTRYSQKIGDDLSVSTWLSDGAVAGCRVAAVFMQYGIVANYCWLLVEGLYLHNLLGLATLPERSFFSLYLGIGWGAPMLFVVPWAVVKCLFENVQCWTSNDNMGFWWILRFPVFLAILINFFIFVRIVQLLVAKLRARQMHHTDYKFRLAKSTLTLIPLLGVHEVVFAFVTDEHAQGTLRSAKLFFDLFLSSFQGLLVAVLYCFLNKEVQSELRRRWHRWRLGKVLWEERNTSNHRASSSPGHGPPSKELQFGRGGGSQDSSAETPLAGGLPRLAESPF

SMILES	IC50 (Glucagon receptor [1]) [nM]	IC50 (MAP kinase p38 [2]) [nM]	inhibition (Glucagon receptor [3]) [%]	IC50 (Glucagon receptor [4]) [nM]	inhibition (Glucagon receptor [5]) [%]	inhibition (MAP kinase p38 [6]) [%]
Fc1ccc(-c2[nH]c(-c3cc(Br)cs3)nc2-c2ccncc2)cc1	2800	100	–	–	–	–
Fc1ccc(-c2[nH]c(-c3cccc(Br)c3)nc2-c2ccncc2)cc1	1400	150	–	–	–	–
CC(C)c1ccc(-c2nc(-c3ccc(F)cc3)c(-c3ccncc3)[nH]2)cc1	700	280	–	–	–	–
Oc1ccc(-c2[nH]c(-c3ccc(Br)cc3)nc2-c2ccccc2)cc1	–	100	24	–	–	–
Brc1ccc(-c2nc(-c3ccccc3)c(-c3ccccc3)[nH]2)cc1	–	2200	37	–	–	–
Clc1ccc(-c2nc(-c3ccc(I)cc3)c(-c3ccncc3)[nH]2)cc1	130	140	–	750	–	–
Clc1ccc(-c2nc(-c3cccc(-c4ccccc4)c3)c(-c3ccncc3)[nH]2)cc1	61	590	–	> 3000	–	–
Fc1ccc(-c2[nH]c(-c3ccc(Br)cc3)nc2-c2ccncc2)cc1	270	160	–	2900	–	–
Fc1ccc(-c2[nH]c(-c3ccccc3Br)nc2-c2ccncc2)cc1	–	90	–	–	< 20	–
CCCOc1ccc(-c2[nH]c(-c3ccc(Cl)cc3)nc2-c2ccncc2)c(OCCC)c1	13	2400	–	120	–	–
Cc1cc(-c2[nH]c(-c3ccc(Cl)cc3)nc2-c2ccc(F)cc2)ccn1	–	50	38	–	–	–
Fc1ccc(-c2[nH]c(-c3ccc(I)cc3)nc2-c2ccncc2)cc1	510	100	–	–	–	–
Fc1ccc(-c2[nH]c(-c3ccc(Br)o3)nc2-c2ccncc2)cc1	–	190	< 20	–	–	–
Clc1ccc(-c2nc(-c3ccccc3Oc3ccccc3)c(-c3ccncc3)[nH]2)cc1	6.5	150	–	290	–	–
CCCCOc1ccc(-c2[nH]c(-c3ccc(Cl)cc3)nc2-c2ccncc2)c(OCCCC)c1	6.5	–	–	53	–	20
CSc1ccc(-c2nc(-c3ccc(F)cc3)c(-c3ccncc3)n2C)cc1	–	520	10	–	–	–
Fc1ccc(-c2[nH]c(CCc3ccccc3)nc2-c2ccncc2)cc1	–	130	< 20	–	–	–
CSc1ccc(-c2nc(-c3ccc(F)cc3)c(-c3ccncc3)o2)cc1	–	930	-8	–	–	–

SMILES	IC50 (Glucagon receptor [1]) [nM]	IC50 (MAP kinase p38 [2]) [nM]	inhibition (Glucagon receptor [3]) [%]	IC50 (Glucagon receptor [4]) [nM]	inhibition (Glucagon receptor [5]) [%]	inhibition (MAP kinase p38 [6]) [%]
Clc1ccc(-c2nc(-c3ccc(Oc4ccccc4)cc3)c(-c3ccncc3)[nH]2)cc1	27	250	–	110	–	–
Brc1ccc(-c2nc(-c3ccccc3)c(-c3ccncc3)[nH]2)cc1	782	40	–	–	–	–
Clc1ccc(-c2nc(-c3cccc(Oc4ccccc4)c3)c(-c3ccncc3)[nH]2)cc1	13	220	–	150	–	–
Clc1ccc(-c2nc(-c3ccc(-c4ccccc4)cc3)c(-c3ccncc3)[nH]2)cc1	140	3300	–	3800	–	–
Cc1ccc(-c2nc(-c3ccc(F)cc3)c(-c3ccncc3)[nH]2)cc1	1300	90	–	–	–	–
Fc1ccc(-c2[nH]c(-c3ccc(Br)s3)nc2-c2ccncc2)cc1	2200	110	–	–	–	–
Fc1ccc(-c2[nH]c(-c3ccc(-c4ccccc4)cc3)nc2-c2ccncc2)cc1	10000	300	–	–	–	–
CSc1ccc(-c2nc(-c3ccncc3)c(-c3ccc(F)cc3)n2C)cc1	–	860	38	–	–	–
Fc1ccc(-c2nc(-c3ccccc3)[nH]c2-c2ccncc2)cc1	> 20000	–	–	–	–	–
CCCCOc1ccccc1-c1[nH]c(-c2ccc(Cl)cc2)nc1-c1ccncc1	8.5	> 1000	–	110	–	–
Oc1ccc(-c2nc(-c3ccc(F)cc3)c(-c3ccncc3)[nH]2)cc1	–	–	–	–	< 20	–
CCCCc1ccc(-c2[nH]c(-c3ccc(Cl)cc3)nc2-c2ccncc2)cc1	74	> 10000	–	150	–	–
Clc1ccc(-c2nc(-c3ccc(Cl)cc3)c(-c3ccncc3)[nH]2)cc1	190	23	–	2200	–	–
Fc1ccc(-c2[nH]c(-c3cccc4ccccc34)nc2-c2ccncc2)cc1	1500	340	–	–	–	–
Cc1cnccc1-c1[nH]c(-c2ccc(Cl)cc2)nc1-c1ccc(F)cc1	1100	20	–	–	–	–
Fc1ccc(-c2[nH]c(-c3ccc(Cl)cc3)nc2-c2ccncc2)cc1	400	80	–	3200	–	–
N#Cc1ccc(-c2nc(-c3ccncc3)c(-c3ccc(F)cc3)[nH]2)cc1	8000	210	–	–	–	–
CC(C)(C)c1ccc(-c2[nH]c(-c3ccc(Cl)cc3)nc2-c2ccncc2)cc1	130	> 10000	–	3400	–	–
